Reference: patent US20230159620A1, “COMPOSITIONS AND METHODS OF TREATMENT FOR VASCULAR DISEASES AND THROMBOSIS” (Washington University, priority 2021, published 2023)

Legend:
Pearl 1 = biological target: T1, Pearl 1 (Homo sapiens, UniProt Q5VY43); assay: Pearl 1 immunoprecipitation and pTyrosine immunoblot, platelets; format: cell-based; conditions: 15 minutes exposure, vs BSA
T1 construct: endogenous in cells; host or cells: freshly isolated human platelets
T1 sequence (Q5VY43 21-1037): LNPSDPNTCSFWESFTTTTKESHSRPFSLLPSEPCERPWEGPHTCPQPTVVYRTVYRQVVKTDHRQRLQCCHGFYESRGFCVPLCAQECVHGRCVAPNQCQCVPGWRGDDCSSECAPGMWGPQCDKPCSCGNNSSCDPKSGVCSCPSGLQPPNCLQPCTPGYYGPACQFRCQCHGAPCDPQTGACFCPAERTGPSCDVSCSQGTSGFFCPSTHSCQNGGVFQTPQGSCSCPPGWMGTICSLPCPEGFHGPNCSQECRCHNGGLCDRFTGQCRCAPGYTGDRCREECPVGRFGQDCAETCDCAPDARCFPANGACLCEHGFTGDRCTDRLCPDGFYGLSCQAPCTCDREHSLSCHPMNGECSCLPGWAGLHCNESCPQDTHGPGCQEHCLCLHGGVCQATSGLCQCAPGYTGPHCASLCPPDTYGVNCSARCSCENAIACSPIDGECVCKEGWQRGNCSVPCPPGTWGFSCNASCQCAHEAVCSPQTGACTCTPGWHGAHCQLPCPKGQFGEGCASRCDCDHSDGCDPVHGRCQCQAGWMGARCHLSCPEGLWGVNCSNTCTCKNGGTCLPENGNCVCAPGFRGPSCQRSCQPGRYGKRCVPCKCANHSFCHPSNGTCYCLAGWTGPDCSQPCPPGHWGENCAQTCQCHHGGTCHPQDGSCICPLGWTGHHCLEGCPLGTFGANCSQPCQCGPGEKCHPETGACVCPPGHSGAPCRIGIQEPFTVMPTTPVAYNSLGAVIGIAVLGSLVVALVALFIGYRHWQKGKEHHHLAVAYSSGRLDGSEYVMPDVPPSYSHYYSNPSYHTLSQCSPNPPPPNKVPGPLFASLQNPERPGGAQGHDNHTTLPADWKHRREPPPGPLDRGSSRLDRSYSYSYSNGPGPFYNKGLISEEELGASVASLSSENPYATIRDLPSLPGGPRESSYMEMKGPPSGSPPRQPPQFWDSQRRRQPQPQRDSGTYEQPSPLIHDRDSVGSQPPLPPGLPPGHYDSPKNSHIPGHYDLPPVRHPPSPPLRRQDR
Protocol: Subsequently, 204, of BSA-blocked Invitrogen Protein A Dynabeads slurry was added, followed by rotation for 45 minutes. The beads were separated using magnetism and washed with RIPA buffer 4-5 times, then resuspended with reducing LDS sample buffer and analyzed by immunoblot assay. Bands for p-tyrosine and Pearl 1 were detected at ˜140 kDa.
Prior to performing signaling assays, cells were trypsinized, centrifuged, suspended in basal media, and counted using an automated hemocytometer. Cells were further diluted in basal media to an assay-dependent concentration. Cells were then incubated with gentle agitation for 60 minutes to prevent cell attachment and reduce basal signaling. PP1, Dynasore, MK-2206, and Rapamycin were diluted in DMSO and used in assay concentrations of 10 μM, 100 μM, 10 μM, and respectively, for the final 20-30 minutes of incubation in basal media. An equal volume of DMSO was used as the negative control condition. […] 1 μg Pearl 1 polyclonal antibody was added as a specific positive control. 20% growth media or 2% fetal bovine serum, labeled “Serum” in figures, was added as a non-specific positive control. The cells were centrifuged at 300G for 3 minutes with the exception of platelets, which were centrifuged at 500G for 5 minutes. […] Protein content was determined using a bicinchoninic acid assay with BSA standards (#23225, Pierce BCA Protein Assay Kit). […]

platelets = tested on: platelets
Protocol: Complete blood counts (CBC) and washed platelet counts were determined using a hematology analyzer Element HT5 (Heska, Loveland). […] For flow cytometry, diluted whole blood or isolated platelets were pre-incubated with their respective fluorescent antibodies for 15 minutes and fixed. For murine whole blood: CD41-VioBlue, CD61-PE (Mitlenyi Biotec, Bergisch Gladbach, Germany), CD42b-DL649, GPVI-FITC (Emfret, Eibelstadt, Germany) and for human whole blood and isolated platelets: CD41-FITC, CD61-APC, CD42b-PE (Biolegend, San Diego), GPVI-BV421 617 (BD, Franklin Lakes). Platelet surface receptor levels were quantified by flow cytometry on a 618 CytoFlex analyzer.
Samples were immediately fixed and run using a CytoFlex analyzer (Beckman Coulter, Pasadena) and analysis was performed with Kaluza software (Beckman Coulter, Pasadena).

Notch = conditions: 4 hours on SVEP1 vs BSA
Protocol: Cells were collected, resuspended in SFM, and incubated for 1 hr with gentle agitation before seeding on tissue culture wells that were precoated and blocked, as described in previous sections. Cells were collected for analysis after 4 hr of growth on the indicated substrate. Svep1SMC+/+ and Svep1SMCΔ/Δ VSMCs were collected for analysis after 72 hr of incubation in SFM to obtain basal Notch signaling.

AKT [1] = conditions: BSA, N-terminal, C-terminal and full-length SVEP1
AKT [2] = assay: AKT signaling immunoblot, platelets; format: cell-based, human; conditions: platelets, vs BSA
Protocol: Prior to performing signaling assays, cells were trypsinized, centrifuged, suspended in basal media, and counted using an automated hemocytometer. Cells were further diluted in basal media to an assay-dependent concentration. Cells were then incubated with gentle agitation for 60 minutes to prevent cell attachment and reduce basal signaling. PP1, Dynasore, MK-2206, and Rapamycin were diluted in DMSO and used in assay concentrations of 10 μM, 100 μM, 10 μM, and respectively, for the final 20-30 minutes of incubation in basal media. An equal volume of DMSO was used as the negative control condition. […] 1 μg Pearl 1 polyclonal antibody was added as a specific positive control. 20% growth media or 2% fetal bovine serum, labeled “Serum” in figures, was added as a non-specific positive control. The cells were centrifuged at 300G for 3 minutes with the exception of platelets, which were centrifuged at 500G for 5 minutes. The cells were then incubated at 37° C. for 8-45 minutes, depending on the cell type and pathway of interest. The cells were lysed in radioimmunoprecipitation buffer (RIPA) containing a cocktail of protease and phosphatase inhibitors and universal nuclease. Immunoblots were performed by standard techniques, as briefly follows. Protein content was determined using a bicinchoninic acid assay with BSA standards (#23225, Pierce BCA Protein Assay Kit). Cell lysates were then reduced with dithiothreitol (DTT) in lithium dodecyl sulfate (LDS) sample buffer (#NP0007, Invitrogen). Equal protein amounts were added to polyacrylamide gels (#4561086, BioRad) and electrophoresed prior to transferring to a nitrocellulose or polyvinylidene fluoride membrane (#1620260, BioRad). Membranes were blocked in 5% BSA/Tris-buffered saline (TBS) with 0.1% Tween 20 for 30 minutes. The indicated primary antibodies were incubated with the pre-blocked membranes overnight at 4° C. Membranes were washed with TBS with 0.1% Tween 20, probed with fluorescent secondary antibodies, and imaged. β-actin or β-tubulin served as a loading control.
Whole blood was collected by venipuncture into either heparin vacutainers (BD, Franklin Lakes) for whole blood experiments or acid-citrate-dextrose (ACD) vacutainers (BD, Franklin Lakes) for platelet isolation studies. For platelet isolation, samples were supplemented with apyrase (Sigma, St Louis) and prostaglandin E1 (Cayman Chemical, Ann Arbor), and platelet-rich plasma (PRP) was prepared by centrifugation of the ACD whole blood for 20 minutes at 200G. Platelets were isolated from the PRP by centrifugation for 10 minutes at 1000G and resuspended in modified Tyrode's buffer twice at desired platelet counts and kept at 37° C. until used. Isolated platelets were used within 2 hours of preparation.

Protocol for THP-1 cells: 2,000 cells were added to each well and incubated for 8 hr to assure complete cell adhesion. […] Adhesion assays were performed in precoated 96-well plates blocked with 100 mg ml-l BSA. Blocking conditions were empirically derived to minimize non-specific cell adhesion. After 5 min (for THP-1 cells) or 15 min (for VSMCs) incubation, non-adhered cells were removed by gently centrifuging the plates upside down. VSMCs were counted manually and THP-1 cells were counted by automated microscopy after staining cells with DAPI.

## SVEP1: recombinant murine SVEP1 extracellular matrix protein with Myc and poly-histidine tag, expressed in 293F cells
Pearl 1
  phospho-tyrosine signal of Pearl 1 (140 kDa): robust phospho-tyrosine signal
platelets; freshly isolated human platelets, soluble SVEP1
  platelet receptor density: lower levels of receptor CD42b and CD61
platelets; isolated human platelets, basal and with ADP, TRAP6
  integrin aIIbβ3 activation (active CD41/61): increased
platelets; isolated human platelets, with ADP, TRAP6
  P-selectin expression: increased
Notch
  expression of canonical Notch targets Hey2 and Hes 1: significantly increased expression
THP-1 cells
  adhesion of THP-1 cells: adhered to SVEP1 in a dose-dependent manner
AKT [1]
  activation of AKT signaling (phospho-AKT): necessary to activate AKT signaling
AKT [2]
  AKT phosphorylation (pAKT): induced AKT phosphorylation
